The source made the active and inactive calls.
Legend:
[1] = biological target: Peroxisome proliferator-activated receptor gamma/Nuclear receptor coactivator 1 (Homo sapiens, UniProt P37231); assay: TR-FRET dose response biochemical High Throughput Screening assay for agonists of the steroid receptor coactivator 1 (SRC-1) recruitment by the peroxisome proliferator-activated receptor gamma (PPAR gamma): non-selective agonists. [Related pubchem assays (depositor defined):AID1300, AID1808, AID504735, AID631]; assay type: protein assay
[2] = biological target: Peroxisome proliferator-activated receptor gamma/Nuclear receptor coactivator 3 (Homo sapiens, UniProt P37231); assay: TR-FRET dose response biochemical High Throughput Screening assay for agonists of the steroid receptor coactivator 3 (SRC-3) recruitment by the peroxisome proliferator-activated receptor gamma (PPAR gamma): non-selective agonists. [Related pubchem assays: 1301 (Confirmation screen.), 1048 (Primary screen.)]; assay type: functional
[3] = inhibitors of intracellular T. cruzi replication, confirmation, NIH3T3 host cells, beta-gal luminescence (AID 2044); assay type: functional, cell-based;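 also: intracellular parasites grown in NIH/3T3 mouse fibroblasts as host cells; luminescent beta-galactosidase reporter signal from transgenic T. cruzi replicating inside host cells; inhibitors lower the luminescence signal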
[4] = biological target: Peroxisome proliferator-activated receptor gamma/Nuclear receptor coactivator 2 (Homo sapiens, UniProt P37231); assay: TR-FRET dose response biochemical High Throughput Screening assay for agonists of the steroid receptor coactivator 2 (SRC-2) recruitment by the peroxisome proliferator-activated receptor gamma (PPAR gamma): non-selective agonists. [Related pubchem assays: 1297, 1032 ]; assay type: functional
[5] = cytotoxicity toward NIH3T3 fibroblasts, dose response, counter-screen, cell-based, ATP luminescence, mouse fibroblasts (AID 2010); assay type: functional;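 also: cells exposed to compound for about 90 hours before reading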
[6] = cytotoxicity in HEK-293T cells, dose response, cytotoxicity control for TCR NF-kB inhibitor project, luminescence, T-cell screen hits (AID 489026); assay type: functional, cell-based;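 also: cells exposed to compound about 14 hours before the viability readout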
[7] = growth suppression of PTEN-null colon cells, dose response, cell-based, HCT116 PTEN knockout (AID 1047); assay type: functional;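 also: HCT116 colon tumor cells with PTEN knocked out; cells exposed to compound for 60 hours before readout; potency for loss of cell viability measured by luminescence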
[8] = growth suppression of beta-catenin-knockout colon cells, dose response, cell-based, HCT116, human colon tumor (AID 1045); assay type: functional;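 also: HCT116 colon tumor cells with beta catenin knocked out; cells exposed to compound for 60 hours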
[9] = biological target: T1, COUP transcription factor 2 (Homo sapiens, UniProt P24468); assay: Luminescence-based cell-based high throughput dose response assay to identify inhibitors of COUP-TFII (NR2F2).; assay type: functional;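 also: HEK293 cells transiently cotransfected with COUP-TFII expression vector and reporter; luciferase reporter luminescence driven by COUP-TFII from the pX2-168 reporter plasmid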
T1 sequence (P24468 whole entry): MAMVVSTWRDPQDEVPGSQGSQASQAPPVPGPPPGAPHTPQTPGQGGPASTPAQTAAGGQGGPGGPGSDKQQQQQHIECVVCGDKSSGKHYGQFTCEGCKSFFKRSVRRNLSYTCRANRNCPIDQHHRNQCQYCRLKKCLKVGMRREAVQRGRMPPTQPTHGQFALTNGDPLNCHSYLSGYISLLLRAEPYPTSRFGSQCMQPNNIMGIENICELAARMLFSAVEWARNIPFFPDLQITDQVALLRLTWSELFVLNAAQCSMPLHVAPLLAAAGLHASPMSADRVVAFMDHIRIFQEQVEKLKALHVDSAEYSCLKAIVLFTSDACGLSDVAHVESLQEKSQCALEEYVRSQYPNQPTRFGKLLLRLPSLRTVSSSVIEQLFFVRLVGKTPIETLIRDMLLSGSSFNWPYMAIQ

[10] = Vero E6 cell cytotoxicity, dose response, cytotoxicity control for non-replicating M. tuberculosis project, secondary assay (AID 492998); assay type: functional, VeroE6; details: Vero C1008
cells = assay type: functional
[11] = biological target: T2, Sentrin-specific protease 8 (Homo sapiens, UniProt Q96LD8); assay type: functional;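 also: luminescence read-out of SENP8 inhibition, dose-response confirmation following an ultra-high-throughput screen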
T2 sequence (Q96LD8 whole entry): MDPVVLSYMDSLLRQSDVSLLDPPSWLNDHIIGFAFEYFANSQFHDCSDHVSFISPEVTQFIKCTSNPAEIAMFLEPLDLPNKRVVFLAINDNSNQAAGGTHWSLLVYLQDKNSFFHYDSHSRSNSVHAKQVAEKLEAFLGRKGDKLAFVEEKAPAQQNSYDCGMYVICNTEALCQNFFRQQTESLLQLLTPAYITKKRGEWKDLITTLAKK

[12] = biological target: T3, Sentrin-specific protease 7 (Homo sapiens, UniProt Q9BQF6); assay type: functional;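 also: Luminescence-based dose-response confirmation of ultra-high-throughput screening hits, measuring inhibition of SENP7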
T3 sequence (Q9BQF6 whole entry): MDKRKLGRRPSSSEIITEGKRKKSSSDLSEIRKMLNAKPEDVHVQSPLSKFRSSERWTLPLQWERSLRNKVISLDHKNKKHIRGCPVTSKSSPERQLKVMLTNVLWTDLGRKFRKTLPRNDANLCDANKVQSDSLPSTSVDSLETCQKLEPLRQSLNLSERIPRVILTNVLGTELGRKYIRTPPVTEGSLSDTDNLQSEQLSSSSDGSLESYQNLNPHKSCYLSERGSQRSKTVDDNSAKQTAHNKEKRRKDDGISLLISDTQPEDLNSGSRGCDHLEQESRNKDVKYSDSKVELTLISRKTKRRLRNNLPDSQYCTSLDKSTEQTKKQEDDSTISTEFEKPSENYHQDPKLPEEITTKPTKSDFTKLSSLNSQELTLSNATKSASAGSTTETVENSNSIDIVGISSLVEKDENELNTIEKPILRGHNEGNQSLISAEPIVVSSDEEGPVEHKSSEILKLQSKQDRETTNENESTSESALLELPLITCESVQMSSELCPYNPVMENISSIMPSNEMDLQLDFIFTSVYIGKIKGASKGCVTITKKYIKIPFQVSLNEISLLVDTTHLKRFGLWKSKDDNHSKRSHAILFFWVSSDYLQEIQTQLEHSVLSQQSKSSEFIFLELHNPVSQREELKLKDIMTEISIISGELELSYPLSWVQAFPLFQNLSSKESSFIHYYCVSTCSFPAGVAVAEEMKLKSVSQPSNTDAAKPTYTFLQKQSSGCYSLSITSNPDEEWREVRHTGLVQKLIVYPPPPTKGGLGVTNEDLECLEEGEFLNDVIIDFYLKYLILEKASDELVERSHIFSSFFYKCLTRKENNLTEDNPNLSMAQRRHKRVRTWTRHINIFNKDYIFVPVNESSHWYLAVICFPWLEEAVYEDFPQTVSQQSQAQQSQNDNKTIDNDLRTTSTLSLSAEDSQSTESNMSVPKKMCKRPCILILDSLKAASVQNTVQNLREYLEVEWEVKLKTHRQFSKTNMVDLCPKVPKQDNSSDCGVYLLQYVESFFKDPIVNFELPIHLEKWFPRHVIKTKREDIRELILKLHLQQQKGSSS

[13] = biological target: T4, Sentrin-specific protease 6 (Homo sapiens, UniProt Q9GZR1); assay type: functional;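 also: Luminescence-based dose-response confirmatory assay of SENP6 inhibition, following up an ultra-high-throughput screen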
T4 sequence (Q9GZR1 whole entry): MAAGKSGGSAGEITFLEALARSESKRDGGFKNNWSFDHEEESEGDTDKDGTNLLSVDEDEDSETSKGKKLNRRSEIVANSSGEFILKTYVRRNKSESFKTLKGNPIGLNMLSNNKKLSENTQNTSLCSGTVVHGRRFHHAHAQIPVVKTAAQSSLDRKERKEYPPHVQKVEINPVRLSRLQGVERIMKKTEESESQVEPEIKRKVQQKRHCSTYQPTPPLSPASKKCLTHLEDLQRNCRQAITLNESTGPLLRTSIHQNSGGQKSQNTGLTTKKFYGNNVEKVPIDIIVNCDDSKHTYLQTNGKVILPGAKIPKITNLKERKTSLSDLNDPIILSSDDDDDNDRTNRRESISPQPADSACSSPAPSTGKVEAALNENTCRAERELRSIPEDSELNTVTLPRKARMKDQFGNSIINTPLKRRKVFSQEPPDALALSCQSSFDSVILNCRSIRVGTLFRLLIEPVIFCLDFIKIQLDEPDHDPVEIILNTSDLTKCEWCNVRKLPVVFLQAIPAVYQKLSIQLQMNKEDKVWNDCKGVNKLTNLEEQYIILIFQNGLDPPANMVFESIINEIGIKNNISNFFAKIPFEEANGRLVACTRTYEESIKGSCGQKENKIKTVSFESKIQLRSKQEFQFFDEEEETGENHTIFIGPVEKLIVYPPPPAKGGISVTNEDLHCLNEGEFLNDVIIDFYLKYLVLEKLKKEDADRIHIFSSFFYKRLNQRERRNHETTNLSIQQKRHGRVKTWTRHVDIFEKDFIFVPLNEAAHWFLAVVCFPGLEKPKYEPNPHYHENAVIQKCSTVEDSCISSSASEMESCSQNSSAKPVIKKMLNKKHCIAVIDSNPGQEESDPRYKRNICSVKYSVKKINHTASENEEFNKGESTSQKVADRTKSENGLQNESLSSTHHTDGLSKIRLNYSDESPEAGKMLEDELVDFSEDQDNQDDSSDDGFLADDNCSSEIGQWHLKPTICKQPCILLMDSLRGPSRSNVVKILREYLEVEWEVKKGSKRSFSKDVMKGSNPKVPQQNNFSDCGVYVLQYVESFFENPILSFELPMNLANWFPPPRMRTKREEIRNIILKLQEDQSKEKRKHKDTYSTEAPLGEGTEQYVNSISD

Caspase-3 = biological target: T5, Caspase-3 (Homo sapiens, UniProt P42574); assay type: functional;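 also: Dose-response selectivity test against caspase-3 for candidate inhibitors of sentrin-specific proteases (SENPs)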
T5 sequence (P42574 whole entry): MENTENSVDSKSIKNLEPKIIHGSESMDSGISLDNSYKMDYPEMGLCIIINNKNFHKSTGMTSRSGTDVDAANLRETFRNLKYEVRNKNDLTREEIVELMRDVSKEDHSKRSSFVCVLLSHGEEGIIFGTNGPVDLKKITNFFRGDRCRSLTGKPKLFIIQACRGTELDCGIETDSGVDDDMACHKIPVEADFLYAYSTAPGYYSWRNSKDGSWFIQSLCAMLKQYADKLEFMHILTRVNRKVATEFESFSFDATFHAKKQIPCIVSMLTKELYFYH

Cytochrome P450 2C19 = Cytochrome P450 2C19 (Homo sapiens, UniProt P33261); assay: Cytochrome panel assay with activity outcomes. Panel member name: p450-cyp2c19 Compounds with AC50 equal or less than 10 uM are considered active; assay type: functional
Cytochrome P450 2C9 = Cytochrome P450 2C9 (Homo sapiens, UniProt P11712)
Cytochrome P450 3A4 = Cytochrome P450 3A4 (Homo sapiens, UniProt P08684);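 also: CYP3A4 tested as one member of a cytochrome P450 panel screen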
Cytochrome P450 2D6 = Cytochrome P450 2D6 (Homo sapiens, UniProt P10635);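 also: CYP2D6 member of a cytochrome P450 panel assay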
[14] = HepG2 cell cytotoxicity, dose response, cytotoxicity control for Shn3 inhibitor project, CellTiter-Glo, cherry-picked (AID 624134); assay type: functional, cell-based
HEK293 [15] = assay: cells; assay type: functional, cell-based; details: Homo sapiens
[16] = Shn3 3'UTR reporter inhibitors, dose response, cell-based, Clone20 osteoblasts, firefly luciferase, cherry-picked (AID 624132); assay type: functional;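 also: firefly luciferase luminescence from reporter carrying the Shn3 3'UTR in osteoblasts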
HEK293 [17] = assay: NOD1 signaling inhibitors, primary screen, cell-based, luminescence, uHTS (AID 1578); assay type: functional; details: Homo sapiens
HEK293 [18] = assay: NOD2 signaling inhibitors in MDP-stimulated cells, cell-based, uHTS, luminescence (AID 2001); assay type: functional; details: Homo sapiens
HEK293 [19] = assay: cells; assay type: functional, cell-based; details: Homo sapiens; remark: listed apart in the source
[20] = control 3'UTR Renilla luciferase suppression, dose response, counter-screen for Shn3 inhibitor project, cell-based, Clone20-Shn3RL, cherry-picked (AID 624133); assay type: functional

Sequence of Cytochrome P450 3A4 (P08684 whole entry): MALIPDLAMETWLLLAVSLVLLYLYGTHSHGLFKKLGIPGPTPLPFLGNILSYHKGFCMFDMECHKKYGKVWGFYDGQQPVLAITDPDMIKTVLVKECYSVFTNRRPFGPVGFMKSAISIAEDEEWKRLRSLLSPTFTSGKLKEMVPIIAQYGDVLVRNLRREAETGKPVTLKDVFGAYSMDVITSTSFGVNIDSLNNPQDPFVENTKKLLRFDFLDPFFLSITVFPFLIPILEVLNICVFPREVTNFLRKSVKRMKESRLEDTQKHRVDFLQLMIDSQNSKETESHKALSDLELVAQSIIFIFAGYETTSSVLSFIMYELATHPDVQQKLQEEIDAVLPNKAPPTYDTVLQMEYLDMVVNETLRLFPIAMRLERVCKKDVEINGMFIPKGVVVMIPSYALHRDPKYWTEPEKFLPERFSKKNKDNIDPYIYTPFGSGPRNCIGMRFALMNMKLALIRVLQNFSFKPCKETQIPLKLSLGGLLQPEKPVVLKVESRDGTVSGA
Sequence of Peroxisome proliferator-activated receptor gamma/Nuclear receptor coactivator 1 (P37231 whole entry): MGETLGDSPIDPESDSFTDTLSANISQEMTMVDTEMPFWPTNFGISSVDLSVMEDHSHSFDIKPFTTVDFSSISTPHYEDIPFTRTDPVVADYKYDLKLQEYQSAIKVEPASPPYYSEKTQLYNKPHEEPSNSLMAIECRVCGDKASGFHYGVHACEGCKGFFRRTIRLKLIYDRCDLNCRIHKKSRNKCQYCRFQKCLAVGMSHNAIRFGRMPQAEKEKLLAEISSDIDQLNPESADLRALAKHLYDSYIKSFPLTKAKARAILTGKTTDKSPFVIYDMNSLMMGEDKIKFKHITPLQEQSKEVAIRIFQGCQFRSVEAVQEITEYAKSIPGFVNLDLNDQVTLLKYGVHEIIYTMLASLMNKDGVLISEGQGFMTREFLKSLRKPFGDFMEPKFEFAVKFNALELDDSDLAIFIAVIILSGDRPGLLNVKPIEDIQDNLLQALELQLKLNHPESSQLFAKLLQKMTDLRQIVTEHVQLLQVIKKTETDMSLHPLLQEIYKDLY
Sequence of Peroxisome proliferator-activated receptor gamma/Nuclear receptor coactivator 1 (Q15788 whole entry, further chain): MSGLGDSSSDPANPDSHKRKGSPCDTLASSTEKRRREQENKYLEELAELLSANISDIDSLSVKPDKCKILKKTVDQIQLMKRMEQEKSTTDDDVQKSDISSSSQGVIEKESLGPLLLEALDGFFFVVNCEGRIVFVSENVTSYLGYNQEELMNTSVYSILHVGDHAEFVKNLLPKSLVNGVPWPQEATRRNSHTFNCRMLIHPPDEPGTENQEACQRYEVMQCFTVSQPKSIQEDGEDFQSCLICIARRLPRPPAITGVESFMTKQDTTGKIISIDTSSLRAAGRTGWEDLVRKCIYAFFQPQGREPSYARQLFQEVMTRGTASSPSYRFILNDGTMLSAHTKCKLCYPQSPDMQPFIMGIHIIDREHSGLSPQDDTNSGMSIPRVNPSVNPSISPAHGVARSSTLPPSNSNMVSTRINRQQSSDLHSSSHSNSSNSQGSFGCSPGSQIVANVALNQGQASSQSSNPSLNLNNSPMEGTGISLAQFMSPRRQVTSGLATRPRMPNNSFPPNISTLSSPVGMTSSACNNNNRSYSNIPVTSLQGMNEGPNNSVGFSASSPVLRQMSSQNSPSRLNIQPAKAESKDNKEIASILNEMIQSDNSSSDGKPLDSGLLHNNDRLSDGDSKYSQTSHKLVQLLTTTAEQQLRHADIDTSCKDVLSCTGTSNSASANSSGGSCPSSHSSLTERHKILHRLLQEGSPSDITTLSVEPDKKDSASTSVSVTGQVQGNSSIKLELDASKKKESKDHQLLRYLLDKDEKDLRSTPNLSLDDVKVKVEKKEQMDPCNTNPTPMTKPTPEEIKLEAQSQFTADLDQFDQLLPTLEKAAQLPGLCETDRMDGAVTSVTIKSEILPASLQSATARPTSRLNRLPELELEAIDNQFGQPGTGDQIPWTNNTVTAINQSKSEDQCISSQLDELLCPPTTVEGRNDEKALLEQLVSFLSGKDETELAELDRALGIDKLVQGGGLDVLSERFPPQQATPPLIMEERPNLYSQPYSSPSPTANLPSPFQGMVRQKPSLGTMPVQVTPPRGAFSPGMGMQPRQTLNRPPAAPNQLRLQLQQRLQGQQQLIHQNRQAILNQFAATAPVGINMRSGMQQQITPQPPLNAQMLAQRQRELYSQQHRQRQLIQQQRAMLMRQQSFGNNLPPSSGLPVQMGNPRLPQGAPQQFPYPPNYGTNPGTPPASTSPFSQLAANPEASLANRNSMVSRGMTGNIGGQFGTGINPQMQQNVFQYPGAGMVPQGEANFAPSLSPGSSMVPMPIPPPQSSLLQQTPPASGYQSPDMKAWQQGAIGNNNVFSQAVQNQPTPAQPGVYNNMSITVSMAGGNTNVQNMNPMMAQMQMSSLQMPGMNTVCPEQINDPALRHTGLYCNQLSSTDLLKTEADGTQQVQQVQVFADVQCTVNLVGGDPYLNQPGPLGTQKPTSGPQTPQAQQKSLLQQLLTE
Sequence of Peroxisome proliferator-activated receptor gamma/Nuclear receptor coactivator 3 (P37231 whole entry): as the sequence (P37231 whole entry) above
Sequence of Peroxisome proliferator-activated receptor gamma/Nuclear receptor coactivator 3 (Q9Y6Q9 whole entry, further chain): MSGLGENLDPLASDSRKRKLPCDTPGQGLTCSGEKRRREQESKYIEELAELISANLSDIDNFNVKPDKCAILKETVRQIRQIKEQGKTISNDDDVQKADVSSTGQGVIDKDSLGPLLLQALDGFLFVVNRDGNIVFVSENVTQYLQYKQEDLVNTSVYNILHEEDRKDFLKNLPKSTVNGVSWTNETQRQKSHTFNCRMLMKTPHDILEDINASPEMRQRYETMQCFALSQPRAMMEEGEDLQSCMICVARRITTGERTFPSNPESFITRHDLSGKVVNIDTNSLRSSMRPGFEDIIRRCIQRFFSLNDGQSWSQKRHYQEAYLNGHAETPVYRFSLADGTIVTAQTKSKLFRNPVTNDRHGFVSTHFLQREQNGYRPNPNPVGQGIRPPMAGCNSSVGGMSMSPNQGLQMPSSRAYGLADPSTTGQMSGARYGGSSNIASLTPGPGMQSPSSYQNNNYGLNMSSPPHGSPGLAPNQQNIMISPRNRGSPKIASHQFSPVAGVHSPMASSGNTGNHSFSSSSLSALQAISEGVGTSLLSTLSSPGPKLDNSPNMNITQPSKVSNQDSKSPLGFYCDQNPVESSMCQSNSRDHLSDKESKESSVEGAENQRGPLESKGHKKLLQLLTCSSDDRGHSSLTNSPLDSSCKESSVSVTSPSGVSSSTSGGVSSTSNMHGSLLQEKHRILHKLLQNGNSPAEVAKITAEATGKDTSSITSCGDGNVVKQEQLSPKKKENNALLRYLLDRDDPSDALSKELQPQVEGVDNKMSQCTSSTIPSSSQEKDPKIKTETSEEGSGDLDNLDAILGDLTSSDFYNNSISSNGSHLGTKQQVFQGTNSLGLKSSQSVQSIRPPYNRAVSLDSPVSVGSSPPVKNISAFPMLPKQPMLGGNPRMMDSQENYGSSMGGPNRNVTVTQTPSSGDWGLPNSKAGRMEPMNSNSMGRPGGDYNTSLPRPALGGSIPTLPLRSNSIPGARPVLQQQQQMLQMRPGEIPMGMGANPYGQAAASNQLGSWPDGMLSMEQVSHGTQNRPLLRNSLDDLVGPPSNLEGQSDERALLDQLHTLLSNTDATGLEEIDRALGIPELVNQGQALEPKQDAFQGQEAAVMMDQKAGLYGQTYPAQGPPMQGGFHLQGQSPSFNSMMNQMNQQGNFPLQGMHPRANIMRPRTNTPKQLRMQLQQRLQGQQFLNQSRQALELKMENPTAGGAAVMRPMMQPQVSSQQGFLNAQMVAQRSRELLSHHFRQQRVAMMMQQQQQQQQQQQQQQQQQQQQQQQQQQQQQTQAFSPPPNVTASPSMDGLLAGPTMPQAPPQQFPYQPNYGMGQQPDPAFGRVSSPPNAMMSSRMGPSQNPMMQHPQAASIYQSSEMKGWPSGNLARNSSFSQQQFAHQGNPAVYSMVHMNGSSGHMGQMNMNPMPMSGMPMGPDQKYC
Sequence of Cytochrome P450 2C19 (P33261 whole entry): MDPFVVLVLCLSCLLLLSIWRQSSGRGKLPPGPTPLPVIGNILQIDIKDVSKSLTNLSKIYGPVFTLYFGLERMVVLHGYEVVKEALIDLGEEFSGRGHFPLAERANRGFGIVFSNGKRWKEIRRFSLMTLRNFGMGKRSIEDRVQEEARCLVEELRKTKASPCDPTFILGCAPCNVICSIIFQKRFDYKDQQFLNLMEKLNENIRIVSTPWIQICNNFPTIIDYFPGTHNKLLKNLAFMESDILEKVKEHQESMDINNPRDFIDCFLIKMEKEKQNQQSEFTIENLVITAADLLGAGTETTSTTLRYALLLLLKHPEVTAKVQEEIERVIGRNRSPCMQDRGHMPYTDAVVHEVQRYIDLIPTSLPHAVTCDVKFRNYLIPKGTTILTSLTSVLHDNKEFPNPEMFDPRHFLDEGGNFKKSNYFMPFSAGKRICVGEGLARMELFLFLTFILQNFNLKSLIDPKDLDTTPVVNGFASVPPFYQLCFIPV

Compound: Cc1cc2cc(CNC(=O)c3cc4ccccc4o3)ccc2n1C
- EC50 [1]: 10.6 µM (inactive)
- EC50 [2]: 19.2 µM (not active)
- EC50 [3]: 0.547 µM (active)
- EC50 [4]: 11.1 µM (not active)
- EC50 [5]: > 60 µM (not active)

Compound: Cn1nc(CC(=O)Nc2ccc(N3CCN(C(=O)OC(C)(C)C)CC3)cc2)c2ccccc2c1=O
- IC50 [6]: > 80 µM (inactive)
- EC50 [7]: 8.04 µM (active)
- EC50 [8]: 5.89 µM (active)
- IC50 [9]: 4.32 µM (active)

Compound: CCCn1nnnc1NC(=O)c1cc(Cl)ccc1Cl
- CC50 [10]: > 20 µM (active)
- IC50 (cells): 5.95 µM (active)

Compound: COc1cccc(-c2nc3ccc([N+](=O)[O-])cc3o2)c1
- IC50 [11]: > 100 µM (inactive)
- IC50 [12]: < 1.55 µM (active)
- IC50 [13]: > 100 µM (inactive)
- IC50 (Caspase-3): 2.52 µM (active)

Compound: CCCN(CCC)CCc1cccc2c1CC(=O)N2 [ROPINIROLE]
- AC50 (Cytochrome P450 2C19): inconclusive
- AC50 (Cytochrome P450 2C9): inconclusive
- AC50 (Cytochrome P450 3A4): inconclusive

Compound: C[N+](=N[N-]c1cccc([N+](=O)[O-])c1)c1ccccc1
- IC50 [11]: 36 µM (active)
- IC50 [12]: 6.72 µM (active)
- IC50 [13]: 33.7 µM (active)
- IC50 (Caspase-3): 29.7 µM (active)

Compound: Clc1cccc(-c2ccc(/C=N/c3ccc(N4CCOCC4)cc3)o2)c1
- EC50 [1]: > 79.4 µM (inactive)
- EC50 [2]: > 79.4 µM (not active)
- EC50 [4]: 28.6 µM (not active)

Compound: COC(=O)Cc1c(C)c2c(O)cc(C)cc2oc1=O
- EC50 [1]: > 79.4 µM (inactive)
- EC50 [2]: > 79.4 µM (not active)
- EC50 [4]: > 79.4 µM (not active)

Compound: CCOC(=O)c1sc(NC(=O)c2ccco2)nc1-c1ccccc1
- EC50 [1]: 24.3 µM (inactive)
- EC50 [2]: > 79.4 µM (not active)
- EC50 [4]: 14.2 µM (not active)

Compound: CO/N=C(/CNC(=O)c1ccc(Cl)cc1Cl)c1ccc(Cl)cc1
- AC50 (Cytochrome P450 3A4): inconclusive
- AC50 (Cytochrome P450 2D6): 2 µM (inconclusive)

Compound: COc1ccc(C(=O)NC(=S)NCc2ccccc2)cc1
- AC50 (Cytochrome P450 3A4): inconclusive

Compound: CCc1nc2cc(CC(=O)O)ccc2o1
- AC50 (Cytochrome P450 2C19): inconclusive
- AC50 (Cytochrome P450 3A4): inconclusive

Compound: Cn1c(=O)cc(SCC(=O)NCC2CCCO2)c2ccc(Cl)cc21 (configuration not stated)
- EC50 [1]: > 79.4 µM (inactive)
- EC50 [2]: > 79.4 µM (not active)
- EC50 [4]: > 26.5 µM (not active)

Compound: CCN(CC)C(=O)c1oc2ccc(S(=O)(=O)N3CC(C)CC(C)C3)cc2c1C (configuration not stated)
- AC50 [14]: 3.55 µM (active)
- IC50 (HEK293 [15]): > 20 µM (inactive)
- AC50 [16]: 1.02 µM (active)
- EC50 (HEK293 [17]): 2.78 µM (active)
- IC50 (HEK293 [18]): 5.18 µM (active)
- IC50 (HEK293 [19]): 4.79 µM (active)
- AC50 [20]: 6.58 µM (active)
- IC50 [9]: 8.24 µM (active)
